The values below come from ChEMBL document CHEMBL4387753 (Bioorg Med Chem, 2019).

Converted amounts (≈) assume the structure as drawn.

Format in all cases: functional
One test has as its system Bacillus subtilis. The experiment in a line: Antibacterial activity against Bacillus subtilis ATCC 9372 incubated for 24 hrs by CLSI protocol based broth microdilution method. Conditions: ATCC 9372, 24 h.
The next test relates to Bacillus pumilus. The experiment in a line: Antibacterial activity against Bacillus pumilus CMCC63202 incubated for 24 hrs by CLSI protocol based broth microdilution method. Conditions: CMCC63202, 24 h. (In general: Broth dilution looks for growth in wells or tubes with falling amounts of substance.)
Test [1] deals with Staphylococcus aureus. Briefly: Antibacterial activity against Staphylococcus aureus ATCC 25923 incubated for 24 hrs by CLSI protocol based broth microdilution method. Conditions: ATCC 25923, 24 h.
Test [2] concerns Staphylococcus aureus. The experiment in a line: Antibacterial activity against methicillin-resistant Staphylococcus aureus ATCC 43300 incubated for 24 hrs by CLSI protocol based broth microdilution method. Conditions: ATCC 43300, 24 h.
Test [3] has as its system Staphylococcus aureus. The experiment in a line: Antibacterial activity against penicillin-resistant Staphylococcus aureus clinical isolate incubated for 24 hrs by CLSI protocol based broth microdilution method.
Test [4] relates to Staphylococcus aureus. The experiment in a line: Antibacterial activity against Staphylococcus aureus clinical isolate incubated for 24 hrs by CLSI protocol based broth microdilution method.
For a further test, the system named is Escherichia coli. Briefly: Antibacterial activity against Escherichia coli ATCC 25922 incubated for 24 hrs by CLSI protocol based broth microdilution method. Conditions: ATCC 25922, 24 h.
The subject of another test is Pseudomonas aeruginosa. Briefly: Antibacterial activity against Pseudomonas aeruginosa ATCC 27853 incubated for 24 hrs by CLSI protocol based broth microdilution method. Conditions: ATCC 27853, 24 h.

By MIC is commonly meant the lowest concentration found to suppress growth. For the molecule `NC(=O)c1c(F)ccc(OCc2nn(-c3ccc(Cl)cc3Cl)c(=O)o2)c1F`, the MIC in the test on Bacillus subtilis is 1 µg/mL (≈ 2.4 µM); against Bacillus pumilus, 0.5 µg/mL (≈ 1.2 µM); in the test with Staphylococcus aureus [1], 4 µg/mL (≈ 9.61 µM); in the test on Staphylococcus aureus [2] it was 2 µg/mL (≈ 4.81 µM); in the test on Staphylococcus aureus [3], 4 µg/mL (≈ 9.61 µM); in the test with Staphylococcus aureus [4], 4 µg/mL (≈ 9.61 µM). Further, the MIC against Escherichia coli and in the test on Pseudomonas aeruginosa was > 64 µg/mL throughout.
Turning to `CN(C)n1c(COc2ccc(F)c(C(N)=O)c2F)nn(-c2ccc(Br)cc2)c1=O`, the MIC against Bacillus subtilis is 32 µg/mL (≈ 68.3 µM); in the test on Bacillus pumilus it was 32 µg/mL (≈ 68.3 µM); in the test with Staphylococcus aureus [1] it was 32 µg/mL (≈ 68.3 µM); against Staphylococcus aureus [2], 16 µg/mL (≈ 34.2 µM); against Staphylococcus aureus [3], 32 µg/mL (≈ 68.3 µM); in the test with Escherichia coli it was > 64 µg/mL. The MIC in the test with Pseudomonas aeruginosa is > 64 µg/mL.
On to `CC(C)c1ccc(-n2nc(COc3ccc(F)c(C(N)=O)c3F)oc2=O)cc1`, for which the MIC against Bacillus subtilis came out at 1 µg/mL (≈ 2.57 µM); in the test on Bacillus pumilus, 2 µg/mL (≈ 5.14 µM); against Staphylococcus aureus [1], 16 µg/mL (≈ 41.1 µM); with Staphylococcus aureus [2], 16 µg/mL (≈ 41.1 µM); against Staphylococcus aureus [3] it was 32 µg/mL (≈ 82.2 µM); against Staphylococcus aureus [4], 16 µg/mL (≈ 41.1 µM). In addition, the MIC with Escherichia coli and with Pseudomonas aeruginosa was > 64 µg/mL each time.
As to `CC[C@H]1OC(=O)[C@H](C)[C@@H](O[C@H]2C[C@@](C)(OC)[C@@H](O)[C@H](C)O2)[C@H](C)[C@@H](O[C@@H]2O[C@H](C)C[C@H](N(C)C)[C@H]2O)[C@](C)(O)C[C@@H](C)C(=O)[C@H](C)[C@@H](O)[C@]1(C)O` [ERYTHROMYCIN], the minimum inhibitory concentration (MIC) against Bacillus subtilis was ≤ 0.125 µg/mL; against Bacillus pumilus, ≤ 0.125 µg/mL; in the test with Staphylococcus aureus [1], ≤ 0.125 µg/mL; against Staphylococcus aureus [2], > 64 µg/mL; against Staphylococcus aureus [4], > 64 µg/mL; against Escherichia coli, 16 µg/mL (≈ 21.8 µM). In the test on Pseudomonas aeruginosa, it took 32 µg/mL (≈ 43.6 µM) to inhibit growth (MIC).
Regarding `N#Cc1ccc(-n2nc(COc3ccc(F)c(C(N)=O)c3F)oc2=O)cc1`, the MIC in the test on Bacillus subtilis was found to be 2 µg/mL (≈ 5.37 µM); with Bacillus pumilus, 4 µg/mL (≈ 10.7 µM); against Staphylococcus aureus [1], 4 µg/mL (≈ 10.7 µM); against Staphylococcus aureus [2] it was 4 µg/mL (≈ 10.7 µM); against Staphylococcus aureus [3], 8 µg/mL (≈ 21.5 µM); in the test with Staphylococcus aureus [4], 16 µg/mL (≈ 43 µM). For the same molecule, the MIC in the test on Escherichia coli and in the test with Pseudomonas aeruginosa was > 64 µg/mL in each case.
Consider `CC(C)(C)c1ccc(-c2nn(COc3ccc(F)c(C(N)=O)c3F)c(=O)o2)cc1`, for which the MIC against Bacillus subtilis was 8 µg/mL (≈ 19.8 µM); with Bacillus pumilus it was 32 µg/mL (≈ 79.3 µM); against Staphylococcus aureus [1], > 64 µg/mL; against Staphylococcus aureus [2], > 64 µg/mL; in the test on Staphylococcus aureus [3] it was > 64 µg/mL; against Staphylococcus aureus [4] it was > 64 µg/mL. The minimum inhibitory concentration (MIC) in the test with Escherichia coli and against Pseudomonas aeruginosa was > 64 µg/mL throughout.
For `COc1cccc(-n2nc(COc3ccc(F)c(C(N)=O)c3F)oc2=O)c1`, the minimal inhibitory concentration (MIC) with Bacillus subtilis was 16 µg/mL (≈ 42.4 µM); against Bacillus pumilus it was > 64 µg/mL; against Staphylococcus aureus [1], 64 µg/mL (≈ 170 µM); with Staphylococcus aureus [2] it was > 64 µg/mL; against Staphylococcus aureus [3], > 64 µg/mL; with Staphylococcus aureus [4] it was 64 µg/mL (≈ 170 µM). In addition, the minimum inhibitory concentration (MIC) in the test on Escherichia coli and in the test on Pseudomonas aeruginosa was > 64 µg/mL in each case.
Regarding `Cc1ccc(-c2nn(COc3ccc(F)c(C(N)=O)c3F)c(=O)o2)cc1`, the MIC against Bacillus subtilis, against Bacillus pumilus, in the test with Staphylococcus aureus [1], against Staphylococcus aureus [2], against Staphylococcus aureus [3] and in the test on Staphylococcus aureus [4] was > 64 µg/mL each time. Besides, the MIC in the test on Escherichia coli and in the test with Pseudomonas aeruginosa was > 64 µg/mL in each case.
`Cc1ccc(-n2nc(COc3ccc(F)c(C(N)=O)c3F)oc2=O)cc1`: the minimum inhibitory concentration (MIC) turned out to be 0.5 µg/mL (≈ 1.38 µM) in the test with Bacillus subtilis; 8 µg/mL (≈ 22.1 µM) with Bacillus pumilus; 4 µg/mL (≈ 11.1 µM) in the test on Staphylococcus aureus [1]; 4 µg/mL (≈ 11.1 µM) against Staphylococcus aureus [2]; 4 µg/mL (≈ 11.1 µM) in the test with Staphylococcus aureus [3]; 4 µg/mL (≈ 11.1 µM) in the test on Staphylococcus aureus [4]. Moreover, the minimal inhibitory concentration (MIC) against Escherichia coli and against Pseudomonas aeruginosa was > 64 µg/mL throughout.
For `CCCCCCCCn1c(COc2ccc(F)c(C(N)=O)c2F)nn(-c2ccc(Br)cc2)c1=O`, the MIC against Bacillus subtilis, in the test on Bacillus pumilus, against Staphylococcus aureus [1], with Staphylococcus aureus [2], against Staphylococcus aureus [3] and in the test with Escherichia coli was > 64 µg/mL each time. Also, the MIC in the test with Pseudomonas aeruginosa is > 64 µg/mL.
Take `CC(C)CCn1c(COc2ccc(F)c(C(N)=O)c2F)nn(-c2ccc(Br)cc2)c1=O`: the MIC in the test with Bacillus subtilis, against Bacillus pumilus, with Staphylococcus aureus [1], against Staphylococcus aureus [2], in the test with Staphylococcus aureus [3] and in the test on Escherichia coli was > 64 µg/mL in each case. For the same molecule, the minimal inhibitory concentration (MIC) against Pseudomonas aeruginosa was > 64 µg/mL.
Regarding `NC(=O)c1c(F)ccc(OCc2nn(-c3ccc(Br)cc3)c(=O)n2N)c1F`, the MIC with Bacillus subtilis was 16 µg/mL (≈ 36.3 µM); against Bacillus pumilus it was 64 µg/mL (≈ 145 µM); against Staphylococcus aureus [1], > 64 µg/mL; with Staphylococcus aureus [2], > 64 µg/mL; with Staphylococcus aureus [3], > 64 µg/mL; against Escherichia coli it was > 64 µg/mL. For the same molecule, the minimum inhibitory concentration (MIC) in the test with Pseudomonas aeruginosa is > 64 µg/mL.
For the molecule `NC(=O)c1c(F)ccc(OCc2nn(-c3ccc(Br)cc3)c(=O)n2Cc2ccccc2)c1F`, the MIC against Bacillus subtilis, in the test with Bacillus pumilus, with Staphylococcus aureus [1], in the test with Staphylococcus aureus [2], in the test with Staphylococcus aureus [3] and in the test on Escherichia coli was > 64 µg/mL throughout. Besides, the minimal inhibitory concentration (MIC) in the test on Pseudomonas aeruginosa was > 64 µg/mL.
Take `CC(C)Cn1c(COc2ccc(F)c(C(N)=O)c2F)nn(-c2ccc(Br)cc2)c1=O`: the MIC against Bacillus subtilis, with Bacillus pumilus, in the test on Staphylococcus aureus [1], with Staphylococcus aureus [2], against Staphylococcus aureus [3] and in the test with Escherichia coli was > 64 µg/mL throughout. The MIC in the test on Pseudomonas aeruginosa was > 64 µg/mL.
As for `CC(C)(C)c1ccc(N2N=C(COc3ccc(F)c(C(N)=O)c3F)CC2=O)cc1`, the minimal inhibitory concentration (MIC) in the test on Bacillus subtilis was > 64 µg/mL; against Bacillus pumilus it was > 64 µg/mL; against Staphylococcus aureus [1], > 64 µg/mL; against Staphylococcus aureus [2] it was > 64 µg/mL; in the test on Staphylococcus aureus [3] it was 64 µg/mL (≈ 159 µM); in the test on Escherichia coli, > 64 µg/mL. Also, the MIC against Pseudomonas aeruginosa is > 64 µg/mL.
Consider `NC(=O)c1c(F)ccc(OCC2=NN(c3ccc(Cl)cc3)C(=O)C2)c1F`, for which the MIC against Bacillus subtilis, with Bacillus pumilus, in the test with Staphylococcus aureus [1], against Staphylococcus aureus [2], against Staphylococcus aureus [3] and against Escherichia coli was > 64 µg/mL each time. Further, the minimal inhibitory concentration (MIC) with Pseudomonas aeruginosa was > 64 µg/mL.
Regarding `CCCCc1ccc(N2N=C(COc3ccc(F)c(C(N)=O)c3F)CC2=O)cc1`, the MIC in the test on Bacillus subtilis is > 64 µg/mL; in the test with Bacillus pumilus it was > 64 µg/mL; against Staphylococcus aureus [1], > 64 µg/mL; with Staphylococcus aureus [2] it was > 64 µg/mL; in the test with Staphylococcus aureus [3], 64 µg/mL (≈ 159 µM); against Escherichia coli it was > 64 µg/mL. In addition, the minimum inhibitory concentration (MIC) in the test with Pseudomonas aeruginosa is > 64 µg/mL.
For the molecule `CCCn1c(COc2ccc(F)c(C(N)=O)c2F)nn(-c2ccc(Br)cc2)c1=O`, the minimum inhibitory concentration (MIC) in the test with Bacillus subtilis was 32 µg/mL (≈ 68.5 µM); with Bacillus pumilus it was > 64 µg/mL; in the test with Staphylococcus aureus [1], > 64 µg/mL; in the test on Staphylococcus aureus [2] it was 32 µg/mL (≈ 68.5 µM); against Staphylococcus aureus [3], > 64 µg/mL; with Escherichia coli, > 64 µg/mL. The MIC against Pseudomonas aeruginosa was > 64 µg/mL.
For the molecule `CCCCn1c(COc2ccc(F)c(C(N)=O)c2F)nn(-c2ccc(Br)cc2)c1=O`, the MIC against Bacillus subtilis, with Bacillus pumilus, in the test on Staphylococcus aureus [1], with Staphylococcus aureus [2], in the test with Staphylococcus aureus [3] and in the test with Escherichia coli was > 64 µg/mL each time. The minimal inhibitory concentration (MIC) in the test on Pseudomonas aeruginosa was > 64 µg/mL.
In the case of `Cn1c(COc2ccc(F)c(C(N)=O)c2F)nn(-c2ccc(Br)cc2)c1=O`, the MIC was 64 µg/mL (≈ 146 µM) against Bacillus subtilis; 1 µg/mL (≈ 2.28 µM) against Bacillus pumilus; > 64 µg/mL against Staphylococcus aureus [1]; > 64 µg/mL in the test on Staphylococcus aureus [2]; > 64 µg/mL with Staphylococcus aureus [3]; > 64 µg/mL with Escherichia coli. The MIC in the test on Pseudomonas aeruginosa was > 64 µg/mL.
